Data: PubChem BioAssay AID330 (DTP/NCI, 2004)
“And” between values parts separate entries of the source, which are not always exact repeats. Identical values can stand only once. Inconclusive results and toxic doses are left out. Rule for the calls: active = survival T/C of 150% or more; inactive = T/C below 125% in these data.

Test system: P388 leukemia ip, CD2F1 mice, survival T/C
Assay: NCI In Vivo Anticancer Drug Screen. Data for tumor model P388 Leukemia (intraperitoneal) in CD2F1 (CDF1) mice
Details: endpoint: median survival time, higher = longer survival
In short: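 Mice carrying the transplanted tumor received test compound or vehicle. Survival was recorded in each group, and the value is the treated-group measurement divided by that of the vehicle-treated control group.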

[1] = dose: 12.5 mg/kg/injection, schedule: Q01DX005 (ip), vehicle: Klucel (hydroxypropylcellulose) (HPC)
[2] = dose: 25.0 mg/kg/injection, schedule: Q01DX005 (ip), vehicle: Klucel (hydroxypropylcellulose) (HPC)
[3] = dose: 50.0 mg/kg/injection, schedule: Q01DX005 (ip), vehicle: saline with Tween-80
[4] = dose: 100.0 mg/kg/injection, schedule: Q01DX005 (ip), vehicle: saline with Tween-80
[5] = dose: 200.0 mg/kg/injection, schedule: Q01DX005 (ip), vehicle: saline with Tween-80
[6] = dose: 50.0 mg/kg/injection, schedule: Q01DX005 (ip), vehicle: Klucel (hydroxypropylcellulose) (HPC)
[7] = dose: 60.0 mg/kg/injection, schedule: Q01DX005 (ip), vehicle: saline with Tween-80
[8] = dose: 120.0 mg/kg/injection, schedule: Q01DX005 (ip), vehicle: saline with Tween-80
[9] = dose: 50.0 mg/kg/injection, schedule: Q01DX009 (ip), vehicle: saline with Tween-80
[10] = dose: 100.0 mg/kg/injection, schedule: Q01DX009 (ip), vehicle: saline with Tween-80
[11] = dose: 200.0 mg/kg/injection, schedule: Q01DX009 (ip), vehicle: saline with Tween-80
[12] = dose: 100.0 mg/kg/injection, schedule: Q04DX003 (ip), vehicle: Klucel (hydroxypropylcellulose) (HPC)
[13] = dose: 240.0 mg/kg/injection, schedule: Q01DX005 (ip), vehicle: saline with Tween-80
[14] = dose: 50.0 mg/kg/injection, schedule: Q04DX002 (ip), vehicle: saline with Tween-80
[15] = dose: 100.0 mg/kg/injection, schedule: Q04DX002 (ip), vehicle: saline with Tween-80
[16] = dose: 200.0 mg/kg/injection, schedule: Q04DX002 (ip), vehicle: saline with Tween-80

Measured: T/C

CC12CC(C(O)(C(F)(F)F)C(F)(F)F)C(=O)C=C1CCC1C2CCC2(C)C(C(=O)CC(O)(C(F)(F)F)C(F)(F)F)CCC12 (centres undefined)
inactive: dose: 75.0 mg/kg/injection, schedule: Q01DX001 (sc), vehicle: steriod suspending solution 104 % of control | dose: 150.0 mg/kg/injection, schedule: Q01DX001 (sc), vehicle: steriod suspending solution 122 % of control | dose: 300.0 mg/kg/injection, schedule: Q01DX001 (sc), vehicle: steriod suspending solution 100 % of control

CN(C)CCSSCCN(C)C.[Cl][Zn][Cl]
inactive: dose: 6.25 mg/kg/injection, schedule: Q01DX005 (ip), vehicle: Klucel (hydroxypropylcellulose) (HPC) 102 % of control | [1] 95 % of control | [2] 97 % of control

N/N=C(/N)[Se]
inactive: dose: 6.25 mg/kg/injection, schedule: Q01DX009 (ip), vehicle: saline 101 % of control | dose: 12.5 mg/kg/injection, schedule: Q01DX009 (ip), vehicle: saline 90 % of control

CC[C@@H]1C[C@@H]2CN3CCc4c([nH]c5ccc(OC)cc45)C(COC(=O)c4ccc(OC)c(OC)c4)(C2)C13
inactive: dose: 0.5 mg/kg/injection, schedule: Q01DX009 (ip), vehicle: Klucel (hydroxypropylcellulose) (HPC) 102 % of control | dose: 1.0 mg/kg/injection, schedule: Q01DX009 (ip), vehicle: Klucel (hydroxypropylcellulose) (HPC) 104 % of control | dose: 2.0 mg/kg/injection, schedule: Q01DX009 (ip), vehicle: Klucel (hydroxypropylcellulose) (HPC) 108 % of control | dose: 4.0 mg/kg/injection, schedule: Q01DX009 (ip), vehicle: Klucel (hydroxypropylcellulose) (HPC) 102 % of control

Cc1ccc(-n2nc(C(O)C(O)C(O)CO)c3nc4cc(C)c(C)cc4nc32)cc1 (centres undefined)
inactive: dose: 25.0 mg/kg/injection, schedule: Q01DX005 (ip), vehicle: saline with Tween-80 98 % of control | [3] 100 % of control and 90 % of control | [4] 102 % of control | [5] 100 % of control

O=P(c1ccccc1)(c1ccccc1)c1ccccc1OCCOCCOc1ccccc1P(=O)(c1ccccc1)c1ccccc1
inactive: [6] 100 % of control | dose: 100.0 mg/kg/injection, schedule: Q01DX005 (ip), vehicle: Klucel (hydroxypropylcellulose) (HPC) 91 % of control | dose: 200.0 mg/kg/injection, schedule: Q01DX005 (ip), vehicle: Klucel (hydroxypropylcellulose) (HPC) 99 % of control

CC(O)CC1C=CCC(CC(O)c2ccccc2)N1C (centres undefined)
inactive: [1] 102 % of control | [2] 100 % of control | [6] 105 % of control

COc1ccc2oc3c(ccc[n+]3C)c(=O)c2c1
inactive: dose: 30.0 mg/kg/injection, schedule: Q01DX005 (ip), vehicle: saline with Tween-80 107 % of control | [7] 120 % of control | [8] 107 % of control

CCc1ccc2c(c1)C(O)(c1ccccc1)c1ccccc1C2(O)c1ccccc1 (centres undefined)
inactive: [9] 95 % of control | [10] 94 % of control | [11] 93 % of control

CC1(CC(C)(C)C2CCCCC2)OCCO1
inactive: dose: 6.25 mg/kg/injection, schedule: Q01DX009 (ip), vehicle: water 104 % of control | dose: 12.5 mg/kg/injection, schedule: Q01DX009 (ip), vehicle: water 108 % of control | dose: 25.0 mg/kg/injection, schedule: Q01DX009 (ip), vehicle: water 107 % of control | dose: 50.0 mg/kg/injection, schedule: Q01DX009 (ip), vehicle: water 109 % of control | dose: 100.0 mg/kg/injection, schedule: Q01DX009 (ip), vehicle: water 90 % of control

C=C1CC2(CCC3C4CC=C5CC(O)CCC5(C)C4CCC32C)OC1=O (centres undefined)
inactive: [12] 104 % of control | dose: 200.0 mg/kg/injection, schedule: Q04DX003 (ip), vehicle: Klucel (hydroxypropylcellulose) (HPC) 105 % of control | dose: 400.0 mg/kg/injection, schedule: Q04DX003 (ip), vehicle: Klucel (hydroxypropylcellulose) (HPC) 97 % of control

O=c1cc(NC2OC(CO)C(O)C(O)C2O)[nH]c(=O)[nH]1 (centres undefined)
inactive: [7] 96 % of control | [8] 102 % of control | [13] 104 % of control

OCC1OC(Oc2ccc(Cl)cc2)C(O)C1O (centres undefined)
inactive: [14] 105 % of control | [15] 98 % of control | [16] 112 % of control

CCN(CC)c1ccc(/C=C2\CCc3ccccc3C2=O)cc1
inactive: dose: 50.0 mg/kg/injection, schedule: Q01DX009 (ip), vehicle: Klucel (hydroxypropylcellulose) (HPC) 108 % of control | dose: 100.0 mg/kg/injection, schedule: Q01DX009 (ip), vehicle: Klucel (hydroxypropylcellulose) (HPC) 111 % of control | dose: 200.0 mg/kg/injection, schedule: Q01DX009 (ip), vehicle: Klucel (hydroxypropylcellulose) (HPC) 106 % of control

c1ccc(CCc2ccnc3c2ccc2ccccc23)cc1
inactive: dose: 25.0 mg/kg/injection, schedule: Q04DX003 (ip), vehicle: Klucel (hydroxypropylcellulose) (HPC) 112 % of control | dose: 50.0 mg/kg/injection, schedule: Q04DX003 (ip), vehicle: Klucel (hydroxypropylcellulose) (HPC) 99 % of control | [12] 99 % of control

CC(C)CCCCCc1ccc(OCCOc2ccc(C(=O)Nc3ccc(S(=O)(=O)F)cc3N)cc2)cc1
inactive: dose: 50.0 mg/kg/injection, schedule: Q04DX003 (ip), vehicle: saline sonified 100 % of control | dose: 100.0 mg/kg/injection, schedule: Q04DX003 (ip), vehicle: saline sonified 100 % of control | dose: 200.0 mg/kg/injection, schedule: Q04DX003 (ip), vehicle: saline sonified 90 % of control

COc1ccc(-c2oc3cc(OC)c(OC)c(O)c3c(=O)c2O)cc1O
inactive: dose: 25.0 mg/kg/injection, schedule: Q04DX002 (ip), vehicle: saline with Tween-80 105 % of control | [14] 110 % of control | [15] 103 % of control | [16] 102 % of control

C/C(=N\NC(=S)N(C)C)c1ncc[nH]1
inactive: [3] 121 % of control | [4] 119 % of control

CCc1ccc([O-])c(C=NCCCN(C)CCCN=Cc2cc(C)ccc2[O-])c1.[Co+3].[N-]=[N+]=[N-]
inactive: [7] 88 % of control | [8] 91 % of control | [13] 101 % of control

O=C1C(Cl)=C(NCCCN(CCCNC2=C(Cl)C(=O)c3ccccc3C2=O)C2=C(Cl)C(=O)c3ccccc3C2=O)C(=O)c2ccccc21
inactive: dose: 50.0 mg/kg/injection, schedule: Q01DX009 (ip), vehicle: saline 108 % of control and 118 % of control | dose: 100.0 mg/kg/injection, schedule: Q01DX009 (ip), vehicle: saline 109 % of control and 115 % of control | dose: 200.0 mg/kg/injection, schedule: Q01DX009 (ip), vehicle: saline 105 % of control and 108 % of control

C/C(=N\NC(=S)N1CCCC1)c1cccc(C)n1
inactive: dose: 12.5 mg/kg/injection, schedule: Q01DX005 (ip), vehicle: saline + Tween-80 + alcohol 104 % of control and 106 % of control | dose: 25.0 mg/kg/injection, schedule: Q01DX005 (ip), vehicle: saline + Tween-80 + alcohol 108 % of control and 113 % of control | dose: 50.0 mg/kg/injection, schedule: Q01DX005 (ip), vehicle: saline + Tween-80 + alcohol 122 % of control

Cc1ccn2c([N+](=O)[O-])cnc2c1
inactive: [9] 107 % of control | [10] 104 % of control | [11] 102 % of control

CN1C(=O)N(c2cc(Cl)cc(Cl)c2)C(=N)C1=S
inactive: dose: 60.0 mg/kg/injection, schedule: Q01DX005 (ip), vehicle: Klucel + Tween-80 98 % of control | dose: 120.0 mg/kg/injection, schedule: Q01DX005 (ip), vehicle: Klucel + Tween-80 94 % of control

CCN(CC)CCOc1ccc(C(O)(Cc2ccc(OC)cc2)c2ccccc2)cc1 (centres undefined)
inactive: [3] 101 % of control | [4] 92 % of control | [5] 92 % of control
